ChEMBL document CHEMBL6177991, “Discovery of P11-2: A Potent First-in-Class MNK1-Targeting PROTAC Degrader for the Treatment of Cancer” (J Med Chem, 2025)
pIC50: −log10 of the molar value. The source made the active and inactive calls. The calls are words filed in the database; no cut-off is given here.

Assays:
MV4-11 [1] = assay: Anti-proliferative activity against human MV4-11 cells measured after 72 hrs by CCK8 assay; conditions: MV4-11, 72 h
MOLM-13 = assay: Anti-proliferative activity against human MOLM-13 cells measured after 72 hrs by CCK8 assay; conditions: MOLM-13, 72 h
MDA-MB-231 = assay: Anti-proliferative activity against human MDA-MB-231 cells measured after 96 hrs by CCK8 assay; conditions: MDA-MB-231, 96 h
MM1.S = assay: Anti-proliferative activity against human MM1.S cells measured after 120 hrs by CCK8 assay
[2] = molecular target: MAP kinase-interacting serine/threonine-protein kinase 1 (Homo sapiens, UniProt Q9BUB5); assay: Inhibition of recombinant MNK1 (unknown origin) using TATKSGSTTKNR peptide as substrate preincubated for 5 mins followed by ATP addition and measured after 40 mins by ADP-Glo kinase assay
Chain of MAP kinase-interacting serine/threonine-protein kinase 1 (Q9BUB5 whole entry): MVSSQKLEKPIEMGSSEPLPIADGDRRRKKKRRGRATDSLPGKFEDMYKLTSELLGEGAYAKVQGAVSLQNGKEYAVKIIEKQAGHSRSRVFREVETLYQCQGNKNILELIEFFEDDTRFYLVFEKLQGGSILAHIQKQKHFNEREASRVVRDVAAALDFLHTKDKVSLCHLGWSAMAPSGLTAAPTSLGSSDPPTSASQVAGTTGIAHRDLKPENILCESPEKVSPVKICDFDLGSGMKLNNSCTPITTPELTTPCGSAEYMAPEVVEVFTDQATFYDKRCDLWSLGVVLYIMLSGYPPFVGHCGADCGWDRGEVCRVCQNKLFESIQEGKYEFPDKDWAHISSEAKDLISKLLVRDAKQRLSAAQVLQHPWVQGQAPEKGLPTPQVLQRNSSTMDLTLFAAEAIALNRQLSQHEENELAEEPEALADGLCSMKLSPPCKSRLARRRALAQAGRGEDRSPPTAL

MV4-11 [3] = assay: Induction of MNK2 degradation in human MV4-11 cells at 300 to 1000 nM incubated for 24 hrs by immunoblot analysis; assay type: cell-based; conditions: dose 300-1000 nM
MV4-11 [4] = assay: Induction of apoptosis in human MV4-11 cells assessed as viable cells at 300 nM incubated for 24 hrs by Annexin V-FITC/PI dual staining based flow cytometric analysis (reference value: 94.9 %); assay type: functional; conditions: read-out: Activity
MV4-11 [5] = assay: Induction of apoptosis in human MV4-11 cells assessed as early apoptotic cells at 300 nM incubated for 24 hrs by Annexin V-FITC/PI dual staining based flow cytometric analysis (reference value: 3.42 %); assay type: functional
MV4-11 [6] = assay: Induction of apoptosis in human MV4-11 cells assessed as late apoptotic cells at 300 nM incubated for 24 hrs by Annexin V-FITC/PI dual staining based flow cytometric analysis (reference value: 1.48 %); assay type: functional
MV4-11 [7] = assay: Induction of apoptosis in human MV4-11 cells assessed as necrotic cells at 300 nM incubated for 24 hrs by Annexin V-FITC/PI dual staining based flow cytometric analysis (reference value: 0.16 %); assay type: functional
MV4-11 [8] = assay: Antitumor activity against human MV4-11 cells xenografted in nude female NSG mouse assessed as tumor growth inhibition at 20 mg/kg, ip qd administrated for 16 days by caliper method relative to control; assay type: functional; conditions: MV4-11, 384 h, time 16 day, read-out: TGI
[9] = Toxicity in nude female NSG mouse xenografted with human MV4-11 cells assessed as change in body weight at 20 mg/kg, ip qd administrated for 16 days; assay type: organism-based; conditions: in vivo, 384 h, time 16 day

Row | SMILES | pIC50 (MV4-11 [1]) | also measured
1 | O=C(CC(=O)N1CCC(C(=O)Nc2ncc(-c3ccccc3)s2)CC1)NCCCCC(=O)Nc1cccc2c1CN(C1CCC(=O)NC1=O)C2=O (stereo not drawn) | 5.21 | –
2 | O=C1CCC(N2C(=O)c3cc(F)c(N4CCN(C(=O)CCCCN5CCC(C(=O)Nc6ncc(-c7ccccc7)s6)CC5)CC4)cc3C2=O)C(=O)N1 (stereo not drawn) | 5.10 | –
3 | O=C(CC(=O)N1CCC(C(=O)Nc2ncc(-c3ccccc3)s2)CC1)NCCCCCCCC(=O)Nc1cccc2c1CN(C1CCC(=O)NC1=O)C2=O (stereo not drawn) | 5.27 | –
4 | O=C1CCC(N2Cc3c(NC(=O)CCCCCCCN4CCC(C(=O)Nc5ncc(-c6ccccc6)s5)CC4)cccc3C2=O)C(=O)N1 (stereo not drawn) | < 5.00 | –
5 | O=C1CCC(N2Cc3c(NC(=O)CCCOc4ccc(CCC(=O)N5CCC(C(=O)Nc6ncc(-c7ccccc7)s6)CC5)cc4)cccc3C2=O)C(=O)N1 (stereo not drawn) | 5.07 | –
6 | O=C1CCC(N2Cc3c(NC(=O)CCCCCCN4CCC(C(=O)Nc5ncc(-c6ccccc6)s5)CC4)cccc3C2=O)C(=O)N1 (stereo not drawn) | 5.31 | –
7 | O=C1CCC(N2Cc3c(NC(=O)CCCCCN4CCC(C(=O)Nc5ncc(-c6ccccc6)s5)CC4)cccc3C2=O)C(=O)N1 (stereo not drawn) | 6.05 | pIC50 (MOLM-13): 4.94; pIC50 (MDA-MB-231): 4.91; pIC50 (MM1.S): 5.91
8 | O=C1CCC(N2Cc3c(NC(=O)CCCCN4CCC(C(=O)Nc5ncc(-c6ccccc6)s5)CC4)cccc3C2=O)C(=O)N1 (stereo not drawn) | 5.47 | –
9 | O=C1CCC(N2Cc3c(NC(=O)CCCOc4ccc(CC(=O)N5CCC(C(=O)Nc6ncc(-c7ccccc7)s6)CC5)cc4)cccc3C2=O)C(=O)N1 (stereo not drawn) | 5.20 | –
10 | O=C1CCC(N2Cc3c(NC(=O)CCc4ccc(OCCCC(=O)N5CCC(C(=O)Nc6ncc(-c7ccccc7)s6)CC5)cc4)cccc3C2=O)C(=O)N1 (stereo not drawn) | < 5.00 | –
11 | O=C1CCC(N2C(=O)c3cc(F)c(N4CCN(C(=O)CCCCC(=O)N5CCC(C(=O)Nc6ncc(-c7ccccc7)s6)CC5)CC4)cc3C2=O)C(=O)N1 (stereo not drawn) | < 5.00 | –
12 | O=C1CCC(N2C(=O)c3cc(F)c(N4CCN(C(=O)CCCN5CCC(C(=O)Nc6ncc(-c7ccccc7)s6)CC5)CC4)cc3C2=O)C(=O)N1 (stereo not drawn) | 5.07 | –
13 | O=C1CCC(N2Cc3c(NC(=O)CCCCCCC(=O)N4CCC(C(=O)Nc5ncc(-c6ccccc6)s5)CC4)cccc3C2=O)C(=O)N1 (stereo not drawn) | 6.68 | pIC50 (MOLM-13): 5.71; pIC50 (MDA-MB-231): 5.24; pIC50 (MM1.S): 6.39
14 | O=C1CCC(N2C(=O)c3cc(F)c(N4CCN(C(=O)CCC(=O)N5CCC(C(=O)Nc6ncc(-c7ccccc7)s6)CC5)CC4)cc3C2=O)C(=O)N1 (stereo not drawn) | 5.29 | –
15 | O=C(CC(=O)N1CCC(C(=O)Nc2ncc(-c3ccccc3)s2)CC1)NCCCCCC(=O)Nc1cccc2c1CN(C1CCC(=O)NC1=O)C2=O (stereo not drawn) | 5.15 | –
16 | O=C1CCC(N2C(=O)c3cc(F)c(N4CCN(C(=O)CC(=O)N5CCC(C(=O)Nc6ncc(-c7ccccc7)s6)CC5)CC4)cc3C2=O)C(=O)N1 (stereo not drawn) | < 5.00 | –

Row | SMILES | pIC50 (MV4-11 [1]) | also measured
17 | O=C1CCC(N2Cc3c(NC(=O)CCCCCCCC(=O)N4CCC(C(=O)Nc5ncc(-c6ccccc6)s5)CC4)cccc3C2=O)C(=O)N1 (stereo not drawn) | 5.34 | –
18 | CN1C(=O)CCC(N2Cc3c(NC(=O)CCCCCC(=O)N4CCC(C(=O)Nc5ncc(-c6ccccc6)s5)CC4)cccc3C2=O)C1=O (stereo not drawn) | < 5.00 | –
19 | O=C1CCC(N2C(=O)c3cc(F)c(N4CCN(C(=O)CCCCCN5CCC(C(=O)Nc6ncc(-c7ccccc7)s6)CC5)CC4)cc3C2=O)C(=O)N1 (stereo not drawn) | < 5.00 | –
20 | O=C1CCC(N2C(=O)c3cc(F)c(N4CCN(C(=O)CCCC(=O)N5CCC(C(=O)Nc6ncc(-c7ccccc7)s6)CC5)CC4)cc3C2=O)C(=O)N1 (stereo not drawn) | 5.05 | pIC50 [2]: 6.19
21 | O=C(CC(=O)N1CCC(C(=O)Nc2ncc(-c3ccccc3)s2)CC1)NCCOCC(=O)Nc1cccc2c1CN(C1CCC(=O)NC1=O)C2=O (stereo not drawn) | < 5.00 | –
22 | O=C1CCC(N2Cc3c(NC(=O)CCCCCCCCC(=O)N4CCC(C(=O)Nc5ncc(-c6ccccc6)s5)CC4)cccc3C2=O)C(=O)N1 (stereo not drawn) | 5.28 | –
23 | O=C(CCC(=O)N1CCC(C(=O)Nc2ncc(-c3ccccc3)s2)CC1)NCCCCCC(=O)Nc1cccc2c1CN(C1CCC(=O)NC1=O)C2=O (stereo not drawn) | < 5.00 | –
24 | O=C1CCC(N2Cc3c(NC(=O)CCc4ccc(OCCCCC(=O)N5CCC(C(=O)Nc6ncc(-c7ccccc7)s6)CC5)cc4)cccc3C2=O)C(=O)N1 (stereo not drawn) | < 5.00 | –
25 | O=C1CCC(N2C(=O)c3cc(F)c(N4CCN(C(=O)CCCCCCC(=O)N5CCC(C(=O)Nc6ncc(-c7ccccc7)s6)CC5)CC4)cc3C2=O)C(=O)N1 (stereo not drawn) | 5.64 | pIC50 (MOLM-13): 5.00; pIC50 (MDA-MB-231): < 4.70; pIC50 (MM1.S): 5.42
26 | O=C(CC(=O)N1CCC(C(=O)Nc2ncc(-c3ccccc3)s2)CC1)NCCCCCCC(=O)Nc1cccc2c1CN(C1CCC(=O)NC1=O)C2=O (stereo not drawn) | 6.07 | pIC50 (MOLM-13): 5.16; pIC50 (MDA-MB-231): 4.75; pIC50 (MM1.S): 5.72
27 | CN1CCC(C(=O)Nc2ncc(-c3ccccc3)s2)CC1 | 5.48 | pIC50 [2]: 6.41; pIC50 (MOLM-13): 4.92; pIC50 (MDA-MB-231): < 4.70; pIC50 (MM1.S): 5.27; Activity (MV4-11 [3]): inactive; viability at 0.3 µM (MV4-11 [4]): 86.2%; Activity (MV4-11 [5]): 9.59%; Activity (MV4-11 [6]): 3.75%; Activity (MV4-11 [7]): 0.49%; inhibition in vivo at 20 mg/kg (MV4-11 [8]): 28%; Activity [9]: Non-toxic
28 | O=C1CCC(N2C(=O)c3cc(F)c(N4CCN(C(=O)CCCCCC(=O)N5CCC(C(=O)Nc6ncc(-c7ccccc7)s6)CC5)CC4)cc3C2=O)C(=O)N1 (stereo not drawn) | 5.39 | –
29 | O=C1CCC(N2Cc3c(NC(=O)CCCCC(=O)N4CCC(C(=O)Nc5ncc(-c6ccccc6)s5)CC4)cccc3C2=O)C(=O)N1 (stereo not drawn) | 5.66 | –
30 | O=C1CCC(N2Cc3c(NC(=O)CCCCOc4ccc(CCC(=O)N5CCC(C(=O)Nc6ncc(-c7ccccc7)s6)CC5)cc4)cccc3C2=O)C(=O)N1 (stereo not drawn) | 5.00 | –
31 | O=C1CCC(N2Cc3c(NC(=O)CCCCOc4ccc(CC(=O)N5CCC(C(=O)Nc6ncc(-c7ccccc7)s6)CC5)cc4)cccc3C2=O)C(=O)N1 (stereo not drawn) | 5.84 | pIC50 (MOLM-13): 5.02; pIC50 (MDA-MB-231): < 4.70; pIC50 (MM1.S): 5.61
